Earlier results in patent US20010006649A1, “STABLE ORAL PHARMACEUTICAL DOSAGE FORMS” (priority 1997, published 2001).

Columns and labels:
[1] = enteric granule formulations, alkaline stabilizers screened
[2] = omeprazole solution, pH-decomposition rate profile

SMILES	stability when exposed to light	optimal pH stability [1]	pH of maximum stability [2]
Cc1c(OCC(F)(F)F)ccnc1C[S+]([O-])c1nc2ccccc2[nH]1 (stereo not drawn) [Lansoprazole, 2-[[[3-methyl-4-(2,2,2-trifluroethoxy)-2-pyridyl]methyl]sulfinyl] benzimidazole]	relatively stable	9	
COc1ccc2[nH]c([S+]([O-])Cc3ncc(C)c(OC)c3C)nc2c1 (stereo not drawn) [omeprazole, 2-[2-(3,5-dimethyl-4-methoxy)-pyridylmethylsulfinyl]-(5-methoxy)-benzimidazole]			11
